Patent publication US20250059174A1, “Pharmaceutical Compounds and Compositions as C-Kit Kinase Inhibitors” (Enanta Pharmaceuticals, Inc., priority 2023, published 2025)

Key:
M-07e cells = experiment: M-07e cellular assay (SCF-mediated cell proliferation); type: cell-based; conditions: Homo sapiens, 72 hours, CellTiter Glo
Protocol: M-07e cells (Creative Bioarray, CSC-C0249) which endogenously express human c-KIT were used to evaluate the effect of compounds on stem cell factor (SCF)-mediated cell proliferation. M-07e cells were cultured in growth media (RPMI+10% FBS+1% penicillin/streptomycin+10 ng/mL GM-CSF) at 5E5-1.5E6 cells/mL, replenishing media every 3-4 days. 1.5E4 cells were seeded per well in 384 well tissue culture treated plates in 20 μL assay media (RPMI+[…]+1% penicillin/streptomycin) without growth factor stimulation and incubated at 37° C. in a CO2 humidity-controlled incubator. Twenty-four hours later, three-fold serially diluted test compounds in media containing SCF (at the previously determined EC90) were added to the plated M-07e cells and incubated for an additional 72 hours. Cell viability was determined by adding 25 μL CellTiter Glo (Promega) to the cells and the luminescence was measured using a Perkin Elmer Envision plate reader. The EC50 was determined using GraphPad Prism. Percent cell growth was determined after normalizing the curve to the mean RLU high control (no compound control wells) at 100% and the mean RLU low control (no SCF control wells) at 0%.

[1] = molecular target: Recombinant human c-KIT kinase (Homo sapiens (Human), UniProt P10721); experiment: c-KIT kinase chemiluminescence assay (ADP-Glo); type: biochemical; conditions: ATP 50 μM
Chain of Recombinant human c-KIT kinase (P10721 26-976): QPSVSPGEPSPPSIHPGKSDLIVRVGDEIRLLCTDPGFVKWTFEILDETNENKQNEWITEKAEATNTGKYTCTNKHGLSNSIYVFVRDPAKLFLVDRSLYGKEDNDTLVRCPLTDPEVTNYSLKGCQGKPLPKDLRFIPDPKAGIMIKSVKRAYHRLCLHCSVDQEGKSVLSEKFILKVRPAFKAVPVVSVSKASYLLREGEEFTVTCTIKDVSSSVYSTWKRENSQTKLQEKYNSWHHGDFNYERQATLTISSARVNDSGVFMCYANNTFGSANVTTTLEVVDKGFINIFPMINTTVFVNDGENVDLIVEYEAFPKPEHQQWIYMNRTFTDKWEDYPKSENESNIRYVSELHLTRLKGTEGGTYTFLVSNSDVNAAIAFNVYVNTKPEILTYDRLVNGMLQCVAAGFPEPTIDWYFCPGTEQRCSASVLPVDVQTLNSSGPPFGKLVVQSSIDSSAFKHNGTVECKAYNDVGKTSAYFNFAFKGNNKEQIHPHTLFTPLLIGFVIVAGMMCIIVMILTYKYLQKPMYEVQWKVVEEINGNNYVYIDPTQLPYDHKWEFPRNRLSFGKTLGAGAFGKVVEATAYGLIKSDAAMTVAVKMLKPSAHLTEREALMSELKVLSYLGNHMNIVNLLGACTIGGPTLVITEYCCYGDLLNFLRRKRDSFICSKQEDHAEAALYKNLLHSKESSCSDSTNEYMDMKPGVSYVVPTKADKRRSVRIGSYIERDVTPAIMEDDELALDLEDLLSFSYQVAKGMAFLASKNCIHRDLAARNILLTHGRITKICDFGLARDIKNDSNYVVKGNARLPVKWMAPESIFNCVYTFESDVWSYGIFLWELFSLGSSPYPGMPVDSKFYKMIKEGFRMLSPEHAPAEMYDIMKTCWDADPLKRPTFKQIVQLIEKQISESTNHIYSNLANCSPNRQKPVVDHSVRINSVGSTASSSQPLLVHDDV
Outline: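 Recombinant human c-KIT preincubated 30 min at RT in 40 mM Tris pH 7.5, 20 mM MgCl2, 0.1 mg/mL BSA, 50 μM DTT, then reacted 2 h at RT with ATP and polyEY substrate. ADP-Glo luminescence readout; activity normalized to high/low controls, IC50 and Hill coefficient from inhibitor-versus-normalized-response fit.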

IC50 [1] | SMILES | EC50 (M-07e cells)
< 100 nM | COC(=O)N1CCC(c2nc(-c3ccc(C)c(NC(=O)c4cnn5ccc(N6CC7(COC7)C6)cc45)c3)no2)C1 (stereo not drawn) [Example 281-131] | < 100 nM
> 1000 nM | Cc1nnc(N2CC(c3nc(-c4cnc(C)c(NC(=O)c5cnn6ccc(N7CC8(COC8)C7)cc56)c4)no3)C2)o1 [Example 281-71] | > 1000 nM
> 1000 nM | Cc1ccc(-c2noc([C@H]3C[C@@H]3F)n2)cc1NC(=O)c1cnc(-c2ccc3c(c2)C2(CCN(C(=O)OC(C)(C)C)CC2)C(=O)N3)o1 [Example 308-8] | 100 to 1000 nM
< 100 nM | Cc1ccc(-c2noc([C@H]3C[C@@H]3F)n2)cc1NC(=O)c1cnn2ccc(N3CCS(=O)(=O)CC3)cc12 [Example 44] | < 100 nM
100 to 1000 nM | CC(=O)N1CC(c2nc(-c3ccc(C)c(NC(=O)c4cnn5ccc(N6CC7(COC7)C6)cc45)c3)no2)C1 [Example 281-19] | > 1000 nM
< 100 nM | Cc1ccc(-c2noc(C3CN(C(=O)C4(F)CC4)C3)n2)cc1NC(=O)c1cnn2ccc(N3CC4(C3)CC(O)(C(F)F)C4)cc12 [Example 281-35] | < 100 nM
100 to 1000 nM | Cc1ccc(-c2noc([C@H]3C[C@@H]3F)n2)cc1NC(=O)c1cnc(-c2ccc3c(c2)C(C)C(=O)N3)o1 (stereo partly drawn) [Example 308-61] | 100 to 1000 nM
< 100 nM | Cc1ccc(-c2noc([C@H]3C[C@@H]3F)n2)cc1NC(=O)c1cnn2ccc(-c3cnn(C(C)(C)CO)c3)cc12 [Example 140] | < 100 nM
< 100 nM | Cc1ccc(-c2noc([C@H]3C[C@@H]3F)n2)cc1NC(=O)c1cnn2cc(-c3cn(C(F)(F)F)nn3)ccc12 [Example 113] | < 100 nM
100 to 1000 nM | CNS(=O)(=O)c1cccc(-c2ncc(C(=O)Nc3cc(-c4noc([C@H]5C[C@@H]5F)n4)ccc3C)o2)c1 [Example 308-30] | 100 to 1000 nM
< 100 nM | Cc1ccc(-c2noc([C@H]3C[C@@H]3F)n2)cc1NC(=O)c1cnn2ccc(N3CC(C(C)(C)O)C3)cc12 [Example 179] | < 100 nM
< 100 nM | CN[C@H]1CCN(c2ccn3ncc(C(=O)Nc4cc(-c5noc([C@H]6C[C@@H]6F)n5)ccc4C)c3c2)C1 [Example 205] | 100 to 1000 nM
< 100 nM | Cc1ccc(-c2noc([C@H]3C[C@@H]3F)n2)cc1NC(=O)c1cnn2ccc(N3CC4(COC(C)(C)OC4)C3)cc12 [Example 241-2] | > 1000 nM
100 to 1000 nM | Cc1ccc(-c2noc([C@H]3C[C@@H]3F)n2)cc1NC(=O)c1cnn2ccc(-n3cc(NC(=O)OC(C)(C)C)cn3)cc12 [Example 236] | 100 to 1000 nM
> 1000 nM | Cc1cc(C)c(-c2ccn3ncc(C(=O)Nc4cc(-c5noc([C@H]6C[C@@H]6F)n5)ccc4C)c3c2)c(C)c1 [Example 171-2] | > 1000 nM
< 100 nM | Cc1ccc(-c2noc([C@H]3C[C@@H]3F)n2)cc1NC(=O)c1cnc(-c2ccc3c(c2)OCCN3)o1 [Example 308-24] | < 100 nM
> 1000 nM | Cc1ccc(-c2noc([C@H]3C[C@@H]3F)n2)cc1NC(=O)c1cnn2cc(-c3cnnn3CC(F)(F)F)ccc12 [Example 121] | > 1000 nM
< 100 nM | Cc1ncc(-c2noc([C@H]3C[C@@H](C(F)(F)F)C3)n2)cc1NC(=O)c1cnn2cc(-c3cn(C(F)F)nn3)ccc12 [Example 132-8] | < 100 nM
100 to 1000 nM | Cc1ncc(-c2noc([C@H]3C[C@H](C(F)(F)F)C3)n2)cc1NC(=O)c1cnn2ccc(N3CC4(COC4)C3)cc12 [Example 281-66] | < 100 nM
< 100 nM | Cc1ccc(-c2nc3cc(F)ccn3n2)cc1NC(=O)c1cnn2ccc(N3CC4(C3)CC(O)(C(F)F)C4)cc12 [Example 318] | < 100 nM

IC50 [1] | SMILES | EC50 (M-07e cells)
< 100 nM | Cc1ncc(-c2noc([C@H]3C[C@@](C)(O)C3)n2)cc1NC(=O)c1cnn2ccc(N3CC4(C3)CC(O)(C(F)F)C4)cc12 [Example 281-36] | 100 to 1000 nM
100 to 1000 nM | Cc1ncc(-c2ccc(OC(F)F)nc2)cc1NC(=O)c1cnn2ccc(N3CC4(COC4)C3)cc12 [Example 330] | < 100 nM
> 1000 nM | Cc1ncc(-c2nnn(CC(F)(F)F)n2)cc1NC(=O)c1cnn2ccc(N3CC4(C3)CC(O)(C(F)F)C4)cc12 [Example 312-5] | < 100 nM
100 to 1000 nM | Cc1ccc(-c2noc(C3CC4(C3)CN(C(=O)[C@H]3C[C@@H]3F)C4)n2)cc1NC(=O)c1cnn2ccc(N3CC4(COC4)C3)cc12 [Example 281-106] | 100 to 1000 nM
< 100 nM | Cc1ccc(-c2noc([C@H]3C[C@@H]3F)n2)cc1NC(=O)c1cnc(-c2ccc3cnn(C)c3c2)o1 [Example 308-32] | 100 to 1000 nM
< 100 nM | O=C(Nc1cc(-c2noc([C@H]3C[C@@H](OC(F)(F)F)C3)n2)ccc1Cl)c1cnn2ccc(N3CC4(C3)CC(O)(C(F)F)C4)cc12 [Example 281-28] | < 100 nM
< 100 nM | Cc1ccc(-c2noc(C3CN(CC(F)(F)F)C3)n2)cc1NC(=O)c1cnn2ccc(N3CC4(C3)CC(O)(C(F)F)C4)cc12 [Example 281-39] | < 100 nM
100 to 1000 nM | Cc1ccc(-c2ncc(OC(F)F)cn2)cc1NC(=O)c1cnc(-c2ccc3c(c2)CC(=O)N3)o1 [Example 359] | 100 to 1000 nM
< 100 nM | Cc1ccc(-c2noc([C@H]3C[C@@H]3F)n2)cc1NC(=O)c1cnn2cc(-c3cn(C(F)(F)C(=O)O)nn3)ccc12 [Example 132-4] | > 1000 nM
100 to 1000 nM | Cc1ccc(-c2noc([C@H]3C[C@@H]3F)n2)cc1NC(=O)c1cnn2ccc(-c3c(C)nc(Cl)nc3C)cc12 [Example 171-8] | 100 to 1000 nM
< 100 nM | Cc1ccc(-c2noc([C@H]3C[C@@H]3F)n2)cc1NC(=O)c1cnn2ccc(N3CC4(CCN(CC(F)F)C4)C3)cc12 [Example 185] | < 100 nM
> 1000 nM | Cc1ncc(-c2nnnn2C)cc1NC(=O)c1cnn2ccc(N3CC4(C3)CC(O)(C(F)F)C4)cc12 [Example 312-1] | > 1000 nM
< 100 nM | Cc1ccc(-c2noc([C@H]3C[C@@H]4[C@H](C3)C4(F)F)n2)cc1NC(=O)c1cnn2ccc(N3CC4(COC4)C3)cc12 [Example 280] | < 100 nM
< 100 nM | Cc1ccc(-c2noc([C@H]3C[C@@H]3F)n2)cc1NC(=O)c1cnc(-c2ccc3[nH]c(=O)ccc3c2)o1 [Example 308-14] | < 100 nM
100 to 1000 nM | Cc1ccc(-c2noc(N3CCOCC3)n2)cc1NC(=O)c1cnn2ccc(N3CC4(COC4)C3)cc12 [Example 281-83] | < 100 nM
100 to 1000 nM | Cc1ccc(-c2noc([C@H]3C[C@@H]3F)n2)cc1NC(=O)c1cnc(-c2ccnc(N)c2)o1 [Example 290] | 100 to 1000 nM
100 to 1000 nM | Cc1sc(-c2noc([C@H]3C[C@@H]3F)n2)cc1NC(=O)c1cnn2ccc(N3CC4(COC4)C3)cc12 [Example 281-117] | 100 to 1000 nM
> 1000 nM | Cc1ccc(-c2noc([C@H]3C[C@@H]3F)n2)cc1NC(=O)c1cnc(-c2ccnc(NC(=O)OC(C)(C)C)c2)o1 [Example 291] | > 1000 nM
100 to 1000 nM | Cc1ccc(-c2noc(C3CN(C(=O)N(C)C4CC4)C3)n2)cc1NC(=O)c1cnn2ccc(N3CC4(COC4)C3)cc12 [Example 281-50] | 100 to 1000 nM
